{
  "source": "ChEMBL document CHEMBL5506059",
  "about": "“Cyanomethylquinolones as a New Class of Potential Multitargeting Broad-Spectrum Antibacterial Agents” (J Med Chem, 2024)",
  "key": {"[1]": {"tested_on": "Staphylococcus aureus", "assay": "Antibacterial activity against methicillin resistant Staphylococcus aureus clinical isolate assessed as inhibition of bacterial growth incubated for 24 hrs", "assay_type": "functional"}, "[2]": {"tested_on": "Staphylococcus aureus", "assay": "Antibacterial activity against Staphylococcus aureus clinical isolate assessed as inhibition of bacterial growth incubated for 24 hrs", "assay_type": "functional"}, "[3]": {"tested_on": "Staphylococcus aureus", "assay": "Antibacterial activity against Staphylococcus aureus ATCC 25923 assessed as inhibition of bacterial growth incubated for 24 hrs", "assay_type": "functional"}, "[4]": {"tested_on": "Staphylococcus aureus", "assay": "Antibacterial activity against Staphylococcus aureus ATCC 29213 assessed as inhibition of bacterial growth incubated for 24 hrs", "assay_type": "functional"}, "[5]": {"tested_on": "Klebsiella pneumoniae", "assay": "Antibacterial activity against Klebsiella pneumoniae clinical isolate assessed as inhibition of bacterial growth incubated for 24 hrs", "assay_type": "functional"}, "[6]": {"tested_on": "Escherichia coli", "assay": "Antibacterial activity against Escherichia coli clinical isolate assessed as inhibition of bacterial growth incubated for 24 hrs", "assay_type": "functional"}, "[7]": {"tested_on": "Pseudomonas aeruginosa", "assay": "Antibacterial activity against Pseudomonas aeruginosa clinical isolate assessed as inhibition of bacterial growth incubated for 24 hrs", "assay_type": "functional"}, "[8]": {"tested_on": "Pseudomonas aeruginosa", "assay": "Antibacterial activity against Pseudomonas aeruginosa ATCC 27853 assessed as inhibition of bacterial growth incubated for 24 hrs", "assay_type": "functional"}, "[9]": {"tested_on": "Acinetobacter baumannii", "assay": "Antibacterial activity against Acinetobacter baumannii clinical isolate assessed as inhibition of bacterial growth incubated for 24 hrs", "assay_type": "functional"}, "[10]": {"tested_on": "Staphylococcus aureus", "assay": "Potency index, ratio of norfloxacin MIC to test compound MIC for antibacterial activity against Staphylococcus aureus clinical isolate assessed as inhibition of bacterial growth incubated for 24 hrs", "assay_type": "functional"}, "[11]": {"tested_on": "Staphylococcus aureus", "assay": "Potency index, ratio of ciprofloxacin MIC to test compound MIC for antibacterial activity against Staphylococcus aureus clinical isolate assessed as inhibition of bacterial growth incubated for 24 hrs", "assay_type": "functional"}, "[12]": {"tested_on": "Staphylococcus aureus", "assay": "Potency index, ratio of clinafloxacin MIC to test compound MIC for antibacterial activity against Staphylococcus aureus clinical isolate assessed as inhibition of bacterial growth incubated for 24 hrs", "assay_type": "functional"}, "[13]": {"tested_on": "Pseudomonas aeruginosa", "assay": "Potency index, ratio of norfloxacin MIC to test compound MIC for antibacterial activity against Pseudomonas aeruginosa clinical isolate assessed as inhibition of bacterial growth incubated for 24 hrs", "assay_type": "functional"}, "[14]": {"tested_on": "Pseudomonas aeruginosa", "assay": "Potency index, ratio of ciprofloxacin MIC to test compound MIC for antibacterial activity against Pseudomonas aeruginosa clinical isolate assessed as inhibition of bacterial growth incubated for 24 hrs", "assay_type": "functional"}, "[15]": {"tested_on": "Pseudomonas aeruginosa", "assay": "Potency index, ratio of clinafloxacin MIC to test compound MIC for antibacterial activity against Pseudomonas aeruginosa clinical isolate assessed as inhibition of bacterial growth incubated for 24 hrs", "assay_type": "functional"}, "[16]": {"tested_on": "Streptococcus pneumoniae", "assay": "Antibacterial activity against Streptococcus pneumoniae ATCC 6305 assessed as inhibition of bacterial growth incubated for 24 hrs", "assay_type": "functional"}, "[17]": {"tested_on": "Streptococcus pyogenes", "assay": "Antibacterial activity against Streptococcus pyogenes ATCC 19615 assessed as inhibition of bacterial growth incubated for 24 hrs", "assay_type": "functional"}, "[18]": {"tested_on": "Staphylococcus epidermidis", "assay": "Antibacterial activity against Staphylococcus epidermidis ATCC 12228 assessed as inhibition of bacterial growth incubated for 24 hrs", "assay_type": "functional"}, "[19]": {"tested_on": "Staphylococcus aureus", "assay": "Antibacterial activity against methicillin-resistant Staphylococcus aureus ATCC 43300 assessed as inhibition of bacterial growth incubated for 24 hrs", "assay_type": "functional"}, "[20]": {"tested_on": "Staphylococcus aureus", "assay": "Antibacterial activity against Staphylococcus aureus ATCC 6538 assessed as inhibition of bacterial growth incubated for 24 hrs", "assay_type": "functional"}, "[21]": {"tested_on": "Staphylococcus aureus", "assay": "Antibacterial activity against Staphylococcus aureus CMCC(B)26003 assessed as inhibition of bacterial growth incubated for 24 hrs", "assay_type": "functional"}, "[22]": {"tested_on": "Staphylococcus aureus", "assay": "Antibacterial activity against Staphylococcus aureus CMCC(B)26001 assessed as inhibition of bacterial growth incubated for 24 hrs", "assay_type": "functional"}, "[23]": {"tested_on": "Enterococcus faecium", "assay": "Antibacterial activity against Enterococcus faecium ATCC 19434 assessed as inhibition of bacterial growth incubated for 24 hrs", "assay_type": "functional"}, "[24]": {"tested_on": "Enterococcus faecalis", "assay": "Potency index, ratio of norfloxacin MIC to test compound MIC for antibacterial activity against vancomycin-resistant Enterococcus faecalis clinical isolate p1-2007225053 assessed as inhibition of bacterial growth incubated for 24 hrs", "assay_type": "functional"}, "[25]": {"assay": "Hemolytic activity in human Red blood cells at 256 ug/ml measured after 1.5 hrs by absorbance based assay relative to control", "assay_type": "toxicity, cell-based, Erythrocyte", "settings": "red blood cells (erythrocytes), at 256 µg/mL, read-out: Activity"}, "[26]": {"tested_on": "Staphylococcus aureus", "assay": "Antibacterial activity against ciprofloxacin-treated Staphylococcus aureus ATCC 6538 assessed as inhibition of bacterial growth measured after 24 hrs", "assay_type": "functional"}, "[27]": {"tested_on": "Pseudomonas aeruginosa", "assay": "Antibiofilm activity in Pseudomonas aeruginosa assessed as biofilm eradication measured after 24 hrs by crystal violet staining based analysis", "assay_type": "functional, organism-based", "settings": "dose 1-2 µg/ml"}, "[28]": {"tested_on": "Pseudomonas aeruginosa", "assay": "Induction of intracellular ROS generation in Pseudomonas aeruginosa assessed as increase in fluorescence intensity at 2 ug/ml incubated for 6 hrs in presence of N-acetyl-L-cysteine by DCFH-DA dye based fluorescence analysis", "assay_type": "functional, organism-based", "settings": "dose 2.0 µg/ml"}, "[29]": {"tested_on": "Staphylococcus aureus", "assay": "Induction of morphological changes in methicillin resistant Staphylococcus aureus assessed as appearance of wrinkled bacterial surface at 2 ug/ml incubated for 3 hrs by SEM analysis", "assay_type": "functional, organism-based", "settings": "dose 2.0 µg/ml"}, "[30]": {"tested_on": "Staphylococcus aureus", "assay": "Induction of morphological changes in methicillin resistant Staphylococcus aureus assessed as appearance of blurred intracellular boundaries with disintegration of bacterial structure at 2 ug/ml incubated for 3 hrs by SEM analysis", "assay_type": "functional, organism-based", "settings": "dose 2.0 µg/ml"}, "[31]": {"tested_on": "Pseudomonas aeruginosa", "assay": "Induction of morphological changes in Pseudomonas aeruginosa assessed as appearance of blurred intracellular boundaries with disintegration of bacterial structure at 2 ug/ml incubated for 3 hrs by SEM analysis", "assay_type": "functional, organism-based", "settings": "dose 2.0 µg/ml"}, "[32]": {"tested_on": "Cell membrane", "assay": "Induction of cell membrane depolarization in methicillin-resistant Staphylococcus aureus assessed as increase in fluorescence intensity at 1 ug/ml measured for 30 mins by DiSC35 dye based fluorescence analysis", "assay_type": "cell membranes", "settings": "dose 1.0 µg/ml"}, "[33]": {"tested_on": "Cell membrane", "assay": "Induction of cell membrane depolarization in Pseudomonas aeruginosa assessed as increase in fluorescence intensity at 1 ug/ml measured for 30 mins by DiSC35 dye based fluorescence analysis", "assay_type": "cell membranes", "settings": "dose 1.0 µg/ml"}, "[34]": {"tested_on": "Cell membrane", "assay": "Induction of cell membrane permeability in methicillin-resistant Staphylococcus aureus assessed as increase in fluorescence intensity at 1 to 2 ug/ml incubated for 6 hrs by PI staining based fluorescence analysis", "assay_type": "cell membranes", "settings": "dose 1-2 µg/ml"}, "[35]": {"tested_on": "Cell membrane", "assay": "Induction of cell membrane permeability in Pseudomonas aeruginosa assessed as increase in fluorescence intensity at 1 to 2 ug/ml incubated for 6 hrs by PI staining based fluorescence analysis", "assay_type": "cell membranes", "settings": "dose 1-2 µg/ml"}, "[36]": {"tested_on": "Cell membrane", "assay": "Induction of cell membrane damage in methicillin-resistant Staphylococcus aureus assessed as increase in nucleic acid leakage at 0 to 2 ug/ml incubated for 12 hrs by optical density based microplate reader analysis", "assay_type": "cell membranes", "settings": "dose 0-2 µg/ml"}, "[37]": {"tested_on": "Cell membrane", "assay": "Induction of cell membrane damage in Pseudomonas aeruginosa assessed as increase in nucleic acid leakage at 0 to 2 ug/ml incubated for 12 hrs by optical density based microplate reader analysis", "assay_type": "cell membranes", "settings": "dose 0-2 µg/ml"}, "[38]": {"tested_on": "Staphylococcus aureus", "assay": "Antibacterial activity against methicillin resistant Staphylococcus aureus assessed as reduction in metabolic activity by measuring reduction in fluorescence intensity at 0.5 to 2 times MIC incubated for 6 hrs by alamar blue assay", "assay_type": "functional, organism-based"}, "[39]": {"tested_on": "Pseudomonas aeruginosa", "assay": "Antibacterial activity against Pseudomonas aeruginosa assessed as reduction in metabolic activity by measuring reduction in fluorescence intensity at 0.5 to 2 times MIC incubated for 6 hrs by alamar blue assay", "assay_type": "functional, organism-based"}, "[40]": {"tested_on": "Staphylococcus aureus", "assay": "Antibacterial activity against methicillin resistant Staphylococcus aureus infected in female ICR mouse assessed as log reduction in bacterial load at 20 mg/kg pre-infected with bacteria for 24 hrs followed by compound administration on wound site every 6 hrs for 2 times and measured 36 hrs post infection", "assay_type": "functional", "settings": "time 12 hrs"}},
  "note": "Active and inactive are the calls of the source. No cut-off for these calls is given here.",
  "data": [
    {"smiles": "N#CCc1cc2c(cc1F)c(=O)c(C(=O)O)cn2C1CC1", "values": [
      {"measurement": "MIC", "setting": "[1]", "value": 0.5, "unit": "µg/mL"},
      {"measurement": "MIC", "setting": "[2]", "value": 0.25, "unit": "µg/mL"},
      {"measurement": "MIC", "setting": "[3]", "value": 4, "unit": "µg/mL"},
      {"measurement": "MIC", "setting": "[4]", "value": 1, "unit": "µg/mL"},
      {"measurement": "MIC", "setting": "[5]", "value": 1, "unit": "µg/mL"},
      {"measurement": "MIC", "setting": "[6]", "value": 2, "unit": "µg/mL"},
      {"measurement": "MIC", "setting": "[7]", "value": 0.25, "unit": "µg/mL"},
      {"measurement": "MIC", "setting": "[8]", "value": 0.5, "unit": "µg/mL"},
      {"measurement": "MIC", "setting": "[9]", "value": 0.25, "unit": "µg/mL"},
      {"measurement": "Ratio", "setting": "[10]", "value": 32},
      {"measurement": "Ratio", "setting": "[11]", "value": 8},
      {"measurement": "Ratio", "setting": "[12]", "value": 2},
      {"measurement": "Ratio", "setting": "[13]", "value": 32},
      {"measurement": "Ratio", "setting": "[14]", "value": 8},
      {"measurement": "Ratio", "setting": "[15]", "value": 2},
      {"measurement": "MIC", "setting": "[16]", "value": 0.5, "unit": "µg/mL"},
      {"measurement": "MIC", "setting": "[17]", "value": 0.25, "unit": "µg/mL"},
      {"measurement": "MIC", "setting": "[18]", "value": 0.5, "unit": "µg/mL"},
      {"measurement": "MIC", "setting": "[19]", "value": 0.5, "unit": "µg/mL"},
      {"measurement": "MIC", "setting": "[20]", "value": 0.5, "unit": "µg/mL"},
      {"measurement": "MIC", "setting": "[21]", "value": 0.125, "unit": "µg/mL"},
      {"measurement": "MIC", "setting": "[22]", "value": 0.125, "unit": "µg/mL"},
      {"measurement": "MIC", "setting": "[23]", "value": 2, "unit": "µg/mL"},
      {"measurement": "Ratio", "setting": "[24]", "value": 8},
      {"measurement": "hemolysis at 1.5 h, 256 ug/ml", "setting": "[25]", "value": "< 1", "unit": "%"},
      {"measurement": "MIC", "setting": "[26]", "value": 8, "unit": "µg/mL"},
      {"measurement": "Activity", "setting": "[27]", "value": "Dose-Dependent Effect"},
      {"measurement": "Activity", "setting": "[28]", "value": "inactive"},
      {"measurement": "Activity", "setting": "[29]", "value": "Active"},
      {"measurement": "Activity", "setting": "[30]", "value": "Active"},
      {"measurement": "Activity", "setting": "[31]", "value": "Active"},
      {"measurement": "Activity", "setting": "[32]", "value": "Active"},
      {"measurement": "Activity", "setting": "[33]", "value": "Active"},
      {"measurement": "Activity", "setting": "[34]", "value": "Active"},
      {"measurement": "Activity", "setting": "[35]", "value": "Active"},
      {"measurement": "Activity", "setting": "[36]", "value": "Active"},
      {"measurement": "Activity", "setting": "[37]", "value": "Active"},
      {"measurement": "Activity", "setting": "[38]", "value": "Active"},
      {"measurement": "Activity", "setting": "[39]", "value": "Active"},
      {"measurement": "log(activity)", "setting": "[40]", "value": "~4"}
    ]}
  ]
}
